# From patent US7056715B1, “GST sequences from soybean and their use in the production of herbicide resistant plants” (Syngenta Limited, priority 1999, dated 2006)
# Assays:
# Details in all cases: fomesafen 10 g ai ha^-1 to aerial tissue at approximately 10-leaf stage, visual assessment 5 days post application
# [1] = system: transgenic tobacco line T82 3747 (pFT2: soybean GST 3.3 and homoglutathione synthetase); assay: Herbicide tolerance test, transgenic tobacco line T82 3747; assay type: in vivo, Nicotiana tabacum
# Excerpt: (§1) 6.1 Plants with increased tolerance to the herbicides acifluorfen and fomesafen were obtained by expression in the plant host of both the active soybean GST 3.3 and the homoglutathione synthetase to further increase levels of homoglutathione, required for the enhanced efficiency function of GST 3.3. 6.2 PCR, using oligonucleotide primers hGSH-Nco1 (SEQ ID No. 21) and hGSH-Kpn1 (SEQ ID No.22) was used to introduce a 5′ Nco1 site and 3′ Kpn1 site into the […]. The resulting PCR product was purified, sequenced, digested with Nco1 and Kpn1 and ligated into the vector pMJB2 (FIG. 1). The expression cassette, comprising the double enhanced CaMV35S promoter: Glucanase II leader, hGSH synthetase cDNA and nos terminator was then excised from pMJB2 using […] and ligated into the similarly digested binary vector pMOG800 (FIG. 3). 6.3 Oligonucleotide primers 3.6-Bgl II (SEQ ID No. 23) and 3.6 Nco1 (SEQ ID No.24) were used to introduce Nco1 and Bgl II sites at the 5′ and 3′ end of the GST 3.6 cDNA respectively. The resulting PCR product was purified, sequenced, digested with Nco1 and Bgl II and sub-cloned into the vector pMOG 1051 (FIG. 2). […] Orientation of the insert was determined by PCR. […]
# [2] = system: Nicotiana tabacum var. Samsun, WT; assay: Herbicide tolerance test, wild-type tobacco; assay type: in vivo
# Method: 7.1 The binary vector pFT2 was transformed into Agrobacterium tumefaciens strain LBA 4404 using the freeze thaw method of transformation provided by Holsters et al., 1978. Tobacco transformation and whole plant regeneration was performed using Nicotiana tabacum var. Samsun according to standard protocols detailed by Bevan, 1984. Transformation events were selected on MS-media containing kanamycin. Other transformation methods may be employed for the transformation of other crops, such as soybean. Examples of such methods are referred to below.
# 9.1 Following tissue culture, kanamycin-resistant plantlets were transferred to 5 inch pots containing John Innes potting compost no. 3. The plants were allowed to develop to approximately the 10-leaf stage and fomesafen applied at 10 g ai ha^−1, formulated with non-ionic surfactant, to the aerial tissue using a track sprayer. Visual assessment of phytotoxicity/plant necrosis is performed 5 days post application.
# [3] = system: transgenic tobacco line T82 3740 (pFT2: soybean GST 3.3 and homoglutathione synthetase); assay: Herbicide tolerance test, transgenic tobacco line T82 3740; assay type: in vivo, Nicotiana tabacum
# Excerpt: as §1
structure (smiles),measurement,setting,value
CS(=O)(=O)NC(=O)c1cc(Oc2ccc(C(F)(F)F)cc2Cl)ccc1[N+](=O)[O-] [fomesafen],% damage,[1],5%
same,% damage,[2],55%
same,% damage,[3],15%
